According to patent US10752587B2, “Homobispiperidinyl derivatives as liver X receptor beta agonists, compositions and their use” (Merck Sharp & Dohme Corp., priority 2015, dated 2020):

Assays:
[1] = biological target: T1, glutathione-S-transferase (GST) tagged LXRbeta LBD (ligand binding domain) (Homo sapiens, UniProt P55055); assay: LanthaScreen TR-FRET Liver X Receptor Coactivator Assay, co-activator recruitment to LXRbeta LBD; type: biochemical; conditions: for LXR beta Activity @ max dose (%) / Emax: efficacy at max dose, in relation to reference dual agonist T0901317; for EC50: potency (Inflection Point, IP), co-activator recruitment to LXRbeta LBD, in relation to T0901317, read-out: LXR beta IP; for Emax: read-out: LXR beta Activity @ max dose (%)
T1 construct: purchased Invitrogen pv4658.pps
T1 sequence (P55055 222-460 limits assumed): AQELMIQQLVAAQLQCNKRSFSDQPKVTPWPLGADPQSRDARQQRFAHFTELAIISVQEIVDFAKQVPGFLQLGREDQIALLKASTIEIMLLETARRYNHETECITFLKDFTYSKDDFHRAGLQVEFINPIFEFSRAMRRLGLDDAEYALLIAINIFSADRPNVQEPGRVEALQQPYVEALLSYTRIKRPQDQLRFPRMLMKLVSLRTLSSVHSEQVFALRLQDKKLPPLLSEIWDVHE
Procedure, shortened: (§1)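 TR-FRET coactivator recruitment; compound + LBD, then fluorescein-coactivator peptide/Tb-anti-GST Ab mix; RT incubation; IP and Emax vs T0901317.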

[2] = biological target: T2, glutathione-S-transferase (GST) tagged LXRalpha LBD (ligand binding domain) (Homo sapiens, UniProt Q13133); assay: LanthaScreen TR-FRET Liver X Receptor Coactivator Assay, co-activator recruitment to LXRalpha LBD; type: biochemical; conditions: for LXR alpha Activity @ max dose (%) / Emax: efficacy at max dose, in relation to reference dual agonist T0901317; for LXR alpha IP (nM) / EC50: potency (Inflection Point, IP), co-activator recruitment to LXRalpha LBD, in relation to T0901317; for Emax: read-out: LXR alpha Activity @ max dose (%); for EC50: read-out: LXR alpha IP
T2 construct: purchased Invitrogen pv4655
T2 sequence (Q13133 209-447 limits assumed): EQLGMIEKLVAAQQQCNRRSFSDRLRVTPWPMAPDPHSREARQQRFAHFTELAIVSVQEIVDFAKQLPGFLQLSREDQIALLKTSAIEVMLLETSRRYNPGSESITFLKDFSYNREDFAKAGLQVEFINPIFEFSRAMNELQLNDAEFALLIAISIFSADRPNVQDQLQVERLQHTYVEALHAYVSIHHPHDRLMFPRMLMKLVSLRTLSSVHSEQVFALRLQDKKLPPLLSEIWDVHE
Procedure, shortened: as §1

SMILES | LXR beta Activity @ max dose (%) [1] | EC50 [1] | LXR alpha Activity @ max dose (%) [2] | LXR alpha IP (nM) [2] | Emax [1] | Emax [2] | EC50 [2]
CNC(=O)c1ccc(N2CCC(CC3CCN(C(=O)[C@](O)(c4cccc(OC)c4)C(F)(F)F)CC3)CC2)cc1Cl [Example 7-127, 2-chloro-N-methyl-4-[4-({1-[(2R)-3,3,3-trifluoro-2-hydroxy-2-(3-methoxyphenyl)propanoyl]piperidin-4-yl}methyl)piperidin-1-yl]benzamide] | 60% | 19 nM | 7% | NO IP | – | – | –
CN(C)C(=O)c1ncc(N2CCC(CC3CCN(C(=O)C(O)(c4cccc(F)c4)C(F)(F)F)CC3)CC2)cc1Cl (stereo not shown) [Example 2-7, 3-chloro-N,N-dimethyl-5-[4-({1-[3,3,3-trifluoro-2-(3-fluorophenyl)-2-hydroxy-propanoyl]piperidin-4-yl}methyl)piperidin-1-yl]pyridine-2-carboxamide] | – | 17 nM | – | – | 80% | 30% | 464 nM
CNC(=O)c1ccc(N2CCC(OC3CCN(C(=O)C(O)(c4cccc(F)c4)C(F)(F)F)CC3)CC2)cc1Cl (stereo not shown) [Example 7-30, 2-chloro-N-methyl-4-[4-({1-[3,3,3-trifluoro-2-(3-fluorophenyl)-2-hydroxypropanoyl]piperidin-4-yl}oxy)piperidin-1-yl] benzamide] | – | 91 nM | – | – | 120% | 50% | 3790 nM
CN(C)C(=O)c1ccc(N2CCC(CC3(C)CCN(C(=O)[C@](O)(c4cccc(Cl)c4)C(F)(F)F)CC3)CC2)cc1Cl [Example 2-47, 2-chloro-4-[4-({1-[(2R)-2-(3-chloro-phenyl)-3,3,3-trifluoro-2-hydroxy-propanoyl]-4-methyl-piperidin-4-yl}methyl)piperidin-1-yl]-N,N-dimethyl-benzamide] | – | 4 nM | – | NO IP | 49% | 7% | –
CNC(=O)c1ccc(N2CCC(CC3CCN(C(=O)[C@](O)(c4cc(F)cc(OC)c4)C(F)(F)F)CC3)CC2)nc1Cl [Example 7-132, 2-chloro-N-methyl-6-[4-({1-[(2R)-3,3,3-trifluoro-2-(3-fluoro-5-methoxyphenyl)-2-hydroxypropanoyl]piperidin-4-yl}methyl)piperidin-1-yl] pyridine-3-carboxamide] | – | 5 nM | – | – | 124% | 22% | 75 nM
Cc1cccc([C@@](O)(C(=O)N2CCC(CC3CCN(c4ccc(C(=O)N(C)C)cc4)CC3)CC2)C(F)(F)F)c1 [Example 2-129, N,N-dimethyl-4-[4-({1-[(2R)-3,3,3-trifluoro-2-hydroxy-2-(3-methylphenyl)propanoyl]piperidin-4-yl}methyl)piperidin-1-yl]benzamide] | – | 51 nM | – | NO IP | 51% | 5% | –
COc1cccc([C@@](O)(C(=O)N2CCC(CC3CCN(c4ccc(C(=O)N(C)C)c(C5CC5)n4)CC3)CC2)C(F)(F)F)c1 [Example 7-11, 2-cyclopropyl-N,N-dimethyl-6-[4-({1-[(2R)-3,3,3-trifluoro-2-hydroxy-2-(3-methoxyphenyl)propanoyl]piperidin-4-yl}methyl)piperidin-1-yl]pyridine-3-carboxamide] | – | 19 nM | – | NO IP | 73% | 8% | –
CNC(=O)c1ccc(N2CCC(CC3CCN(C(=O)[C@](O)(c4ccccc4)C(F)(F)F)CC3)CC2)cc1Cl [Example 7-25, 2-chloro-N-methyl-4-[4-({1-[(2R)-3,3,3-trifluoro-2-hydroxy-2-phenylpropanoyl]piperidin-4-yl}methyl)piperidin-1-yl]benzamide] | – | 20 nM | – | – | 77% | 44% | 343 nM
COc1cc(Cl)cc([C@](O)(C(=O)N2CCC(CC3CCN(c4ccc(C(=O)N(C)C)c(Cl)n4)CC3)CC2)C(F)(F)F)c1 [Example 7-108, 2-chloro-6-[4-({1-[(2S)-2-(3-chloro-5-methoxyphenyl)-3,3,3-trifluoro-2-hydroxypropanoyl]piperidin-4-yl}methyl)piperidin-1-yl]-N,N-dimethylpyridine-3-carboxamide] | – | 47 nM | – | NO IP | 101% | 10% | –
CN(C)C(=O)c1ccc(N2CCC(CC3CCN(C(=O)C(O)(c4cccnc4)C(F)(F)F)CC3)CC2)cc1Cl (stereo not shown) [Example 2-90, 2-chloro-N,N-dimethyl-4-(4-{[1-(3,3,3-trifluoro-2-hydroxy-2-pyridin-3-ylpropanoyl)piperidin-4-yl]methyl}piperidin-1-yl)benzamide] | – | 78 nM | – | – | 99% | 46% | 3550 nM
CN(C)C(=O)c1ccc(N2CCC(CC3CCN(C(=O)C(O)(c4cccnc4)C(F)(F)F)CC3)CC2)nc1Cl (stereo not shown) [Example 7-66, 2-chloro-N,N-dimethyl-6-(4-{[1-(3,3,3-trifuoro-2-hydroxy-2-pyridin-3-ylpropanoyl)piperidin-4-yl]methyl}piperidin-1-yl)pyridine-3-carboxamide] | – | 83 nM | – | – | 108% | 48% | 1590 nM
CCOc1cccc([C@@](O)(C(=O)N2CCC(CC3CN(c4ccc(C(=O)N(C)C)c(OC)n4)C3)CC2)C(F)(F)F)c1 [Example 7-22, 6-[3-({1-[(2R)-2-(3-ethoxyphenyl)-3,3,3-trifluoro-2-hydroxypropanoyl]piperidin-4-yl}methyl)azetidin-1-yl]-2-methoxy-N,N-dimethylpyridine-3-carboxamide] | – | 1270 nM | – | NO IP | 45% | 0% | –
CN(C)C(=O)c1ccc(N2CCC(CC3CCN(C(=O)[C@](N)(c4ccccc4)C(F)(F)F)CC3)CC2)cc1Cl (stereo in doubt) [Example 2-101, 4-[4-({1-[2-amino-3,3,3-trifluoro-2-phenyl-propanoyl]piperidin-4-yl}methyl)piperidin-1-yl]-2-chloro-N,N-dimethyl-benzamide] | – | 114 nM | – | – | 106% | 21% | 1770 nM
CN(C)C(=O)c1ccc(N2CCC(CC3CCN(C(=O)[C@](O)(c4cccc(F)c4)C(F)(F)F)CC3)CC2)nc1Cl [Example 7-72, 2-chloro-N,N-dimethyl-6-[4-({1-[(2R)-3,3,3-trifluoro-2-(3-fluorophenyl)-2-hydroxypropanoyl]piperidin-4-yl}methyl)piperidin-1-yl]pyridine-3-carboxamide] | – | 3 nM | – | – | 91% | 50% | 88 nM
CN(C)C(=O)c1ccc(N2CCC(CC3CCN(C(=O)C(O)(c4cccc(C(F)(F)F)c4)C(F)(F)F)CC3)CC2)nc1Cl (stereo not shown) [Example 7-54, 2-chloro-N,N-dimethyl-6-{4-[(1-{3,3,3-trifluoro-2-hydroxy-2-[3-(trifluoromethyl)phenyl]propanoyl}piperidin-4-yl)methyl]piperidin-1-yl}pyridine-3-carboxamide] | – | 10 nM | – | – | 77% | 21% | 356 nM
COc1cc(Cl)cc([C@@](O)(C(=O)N2CCC(C)(CC3CCN(c4ccc(C(=O)N(C)C)c(Cl)c4)CC3)CC2)C(F)(F)F)c1 [Example 2-48, 2-chloro-4-[4-({1-[(2R)-2-(3-chloro-5-methoxyphenyl)-3,3,3-trifluoro-2-hydroxy-propanoyl]-4-methyl-piperidin-4-yl}methyl)piperidin-1-yl]-N,N-dimethyl-benzamide] | – | 27 nM | – | NO IP | 30% | 0% | –
CN(C)C(=O)c1ccc(N2CCC(CC3CCN(C(=O)[C@](O)(c4cccc(N(C)C)c4)C(F)(F)F)CC3)CC2)cc1Cl [Example 2-98] | – | 8 nM | – | NO IP | 20% | 0% | –
CN(C)C(=O)c1ccc(N2CCC(CC3CCN(C(=O)C(O)(c4cccs4)C(F)(F)F)CC3)CC2)cc1Cl (stereo not shown) [Example 2-37, 2-chloro-N,N-dimethyl-4-(4-{[1-(3,3,3-trifluoro-2-hydroxy-2-thiophen-2-ylpropanoyl)piperidin-4-yl]methyl}piperidin-1-yl)benzamide] | – | 29 nM | – | – | 73% | 33% | 620 nM
CN(C)C(=O)c1ccc(N2CCC(CC3CCN(C(=O)[C@](O)(c4cc(Cl)cc(Cl)c4)C(F)(F)F)CC3)CC2)cc1 [Example 2-142, 4-[4-({1-[(2R)-2-(3,5-dichloro-phenyl)-3,3,3-trifluoro-2-hydroxy-propanoyl]piperidin-4-yl}methyl)piperidin-1-yl]-N,N-dimethyl-benzamide] | 60% | 60 nM | 4% | NO IP | – | – | –
